According to paper PMC8433807, “Scaffold Repurposing of In-House Small Molecule Candidates Leads to Discovery of First-in-Class CDK-1/HER-2 Dual Inhibitors: In Vitro and In Silico Screening” (Molecules, 2021):

Tests used:
[1] = molecular target: T1, HER-2 (Homo sapiens, UniProt P04626); experiment: Kinase HotSpot activity assay, single dose in duplicate; type: biochemical; conditions: 10 µM; 10 μM compound; 10 μM ATP; value is residual kinase activity, not inhibition
T1 construct: gene ERBB2; Reaction Biology Corp. Kinase HotSpot service

[2] = molecular target: T2, CDK-1/cyclin B (Homo sapiens, UniProt P06493); experiment: as above; type: biochemical; conditions: 10 µM; 10 μM compound; 10 μM ATP; value is residual kinase activity, not inhibition
T2 construct: gene CDK1; Reaction Biology Corp. Kinase HotSpot service; with G2/mitotic-specific cyclin-B1
T2 sequence (P06493 whole entry): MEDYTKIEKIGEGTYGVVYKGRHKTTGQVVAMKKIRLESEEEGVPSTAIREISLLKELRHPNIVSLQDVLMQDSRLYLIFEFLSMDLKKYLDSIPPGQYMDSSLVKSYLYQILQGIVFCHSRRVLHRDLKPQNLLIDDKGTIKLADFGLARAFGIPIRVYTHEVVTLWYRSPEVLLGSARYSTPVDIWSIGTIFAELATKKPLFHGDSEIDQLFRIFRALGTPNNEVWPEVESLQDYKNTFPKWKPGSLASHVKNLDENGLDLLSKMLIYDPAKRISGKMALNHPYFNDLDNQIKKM
T2 sequence (P14635 whole entry partner): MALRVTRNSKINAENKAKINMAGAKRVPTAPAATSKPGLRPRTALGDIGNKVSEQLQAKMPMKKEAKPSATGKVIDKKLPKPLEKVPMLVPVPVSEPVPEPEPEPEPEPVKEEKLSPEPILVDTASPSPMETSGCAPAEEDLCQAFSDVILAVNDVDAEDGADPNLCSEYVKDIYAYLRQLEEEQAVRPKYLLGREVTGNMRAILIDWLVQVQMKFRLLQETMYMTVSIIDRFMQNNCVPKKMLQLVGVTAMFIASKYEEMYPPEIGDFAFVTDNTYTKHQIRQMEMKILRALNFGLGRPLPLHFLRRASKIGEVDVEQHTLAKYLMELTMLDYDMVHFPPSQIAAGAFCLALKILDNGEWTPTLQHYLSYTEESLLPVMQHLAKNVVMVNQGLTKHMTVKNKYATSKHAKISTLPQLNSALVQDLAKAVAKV

T1 sequence (P04626 676-1255 limits assumed): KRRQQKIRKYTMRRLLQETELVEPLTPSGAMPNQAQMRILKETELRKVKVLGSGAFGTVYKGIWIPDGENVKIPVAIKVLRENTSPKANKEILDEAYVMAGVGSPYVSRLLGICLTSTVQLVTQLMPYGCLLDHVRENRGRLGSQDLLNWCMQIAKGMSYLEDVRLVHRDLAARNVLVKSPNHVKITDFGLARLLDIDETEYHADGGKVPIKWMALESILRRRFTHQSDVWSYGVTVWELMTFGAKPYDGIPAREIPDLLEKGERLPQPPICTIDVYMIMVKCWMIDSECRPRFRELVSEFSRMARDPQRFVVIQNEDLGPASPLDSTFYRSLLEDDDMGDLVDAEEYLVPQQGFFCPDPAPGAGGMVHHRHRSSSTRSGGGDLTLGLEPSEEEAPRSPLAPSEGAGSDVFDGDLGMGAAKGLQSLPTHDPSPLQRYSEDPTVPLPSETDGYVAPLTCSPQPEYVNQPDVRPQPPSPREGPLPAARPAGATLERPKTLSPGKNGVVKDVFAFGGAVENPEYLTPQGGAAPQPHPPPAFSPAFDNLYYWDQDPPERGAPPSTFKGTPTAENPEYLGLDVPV

O=C(Nc1ccc2c(ccn2C(=O)c2cccc(F)c2)c1)c1ccnnc1 [15l]
% Activity / HER-2 [1]: 52%
% Activity / CDK-1/cyclin B [2]: 51%
